Data: ChEMBL document CHEMBL5032517, “Synthesis of the analogs of plocabulin and their preliminary structure-activity relationship study” (Bioorg Med Chem Lett, 2021)
pIC50: −log10 of the molar value.

How the values were obtained:
[1] = test system: HT-29; assay: Antiproliferative activity against human HT-29 cells assessed as inhibition of cell growth by first round CCK8 assay; type: functional, cell-based
[2] = test system: A549; assay: Antiproliferative activity against human A549 cells assessed as inhibition of cell growth by first round CCK8 assay; type: functional, cell-based
[3] = test system: HepG2; assay: Antiproliferative activity against human HepG2 cells assessed as inhibition of cell growth by first round CCK8 assay; type: functional, cell-based
[4] = molecular target: Tubulin; assay: Inhibition of tubulin polymerization (unknown origin); type: protein-complex assay, Homo sapiens
[5] = test system: HT-29; assay: Antiproliferative activity against human HT-29 cells assessed as inhibition of cell growth by secondary round CCK8 assay
[6] = test system: HepG2; assay: Antiproliferative activity against human HepG2 cells assessed as inhibition of cell growth by secondary round CCK8 assay; type: functional, cell-based
[7] = test system: A549; assay: Antiproliferative activity against human A549 cells assessed as inhibition of cell growth by secondary round CCK8 assay; type: functional, cell-based

Compound	pIC50 [1]	pIC50 [2]	pIC50 [3]	pIC50 [4]	pIC50 [5]	pIC50 [6]	pIC50 [7]
COC1=CC[C@@H]([C@@H](C)/C=C(C)/C=C\C=C/C(=O)N[C@H](C(=O)N/C=C\CCOC(N)=O)C(C)(C)C)OC1=O	8.96	8.62	8.24	–	–	–	–
COC1=CC[C@@H]([C@@H](C)/C=C(C)/C=C\C=C/C(=O)N[C@H](C(=O)N/C=C(/C)CCOC(N)=O)C(C)(C)C)OC1=O	–	–	–	4.80	–	–	–
C/C=C\CC(C/C=C\NC(=O)[C@@H](NC(=O)\C=C/C=C\C(C)=C\[C@H](C)[C@@H]1CC=C(OC)C(=O)O1)C(C)(C)C)OC(N)=O (some centres not stated)	9.57	9.14	8.79	5.51	> 9.70	9.44	> 9.70
CC(=O)O[C@H]1C(=O)[C@@]2(C)[C@H]([C@H](OC(=O)c3ccccc3)[C@]3(O)C[C@H](OC(=O)[C@H](O)[C@@H](NC(=O)c4ccccc4)c4ccccc4)C(C)=C1C3(C)C)[C@]1(OC(C)=O)CO[C@@H]1C[C@@H]2O [PACLITAXEL]	–	–	–	–	–	8.00	–
